Source: paper PMC5394417, “Investigating the molecular mechanism of positive and negative allosteric modulators in the calcium-sensing receptor dimer” (Scientific Reports, 2017)

Target: T1, HA-I841A CaSR mutant (Rattus norvegicus, UniProt P48442, I841A)
T1 construct: mGluR5 signal peptide (N); expressed in transfected cells; host or cells: HEK293T
T1 sequence (P48442 20-1079 I841A): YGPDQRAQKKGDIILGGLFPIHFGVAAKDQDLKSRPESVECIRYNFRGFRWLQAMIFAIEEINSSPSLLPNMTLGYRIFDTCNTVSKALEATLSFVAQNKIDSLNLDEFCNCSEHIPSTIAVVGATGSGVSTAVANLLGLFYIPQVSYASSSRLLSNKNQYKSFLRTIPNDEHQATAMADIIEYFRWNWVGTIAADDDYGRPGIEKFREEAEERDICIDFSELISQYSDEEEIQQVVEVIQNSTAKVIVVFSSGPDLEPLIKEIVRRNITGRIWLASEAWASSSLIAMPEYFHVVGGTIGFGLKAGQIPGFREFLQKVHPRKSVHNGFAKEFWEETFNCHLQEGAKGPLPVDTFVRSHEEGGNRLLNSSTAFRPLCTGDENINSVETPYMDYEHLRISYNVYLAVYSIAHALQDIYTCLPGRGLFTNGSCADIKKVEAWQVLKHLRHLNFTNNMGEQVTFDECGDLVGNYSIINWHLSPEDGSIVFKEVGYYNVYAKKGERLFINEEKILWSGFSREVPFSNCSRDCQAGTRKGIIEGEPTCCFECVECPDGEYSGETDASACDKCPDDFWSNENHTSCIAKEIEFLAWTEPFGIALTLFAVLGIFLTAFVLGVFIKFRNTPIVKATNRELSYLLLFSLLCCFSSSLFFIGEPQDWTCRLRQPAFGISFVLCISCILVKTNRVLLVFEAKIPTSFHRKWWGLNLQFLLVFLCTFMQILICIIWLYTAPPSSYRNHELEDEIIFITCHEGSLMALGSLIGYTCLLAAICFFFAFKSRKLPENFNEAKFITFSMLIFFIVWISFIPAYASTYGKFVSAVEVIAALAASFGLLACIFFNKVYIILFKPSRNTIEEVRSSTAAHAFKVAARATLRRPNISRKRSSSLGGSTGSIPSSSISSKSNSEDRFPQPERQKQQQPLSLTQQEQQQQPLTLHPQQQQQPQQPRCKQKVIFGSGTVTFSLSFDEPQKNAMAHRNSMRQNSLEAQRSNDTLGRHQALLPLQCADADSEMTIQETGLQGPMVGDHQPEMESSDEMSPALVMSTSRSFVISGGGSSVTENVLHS
Assay: IP-One assay, HEK293T transiently transfected
Assay type: cell-based

EC50 (Ca^2+ alone): 2.59 mM | pEC50 ± S.E.M. (Ca^2+ alone): 2.59 ± 0.01 | Max ± S.E.M. (Ca^2+ alone, normalized to maximum response of WT CaSR): 81 ± 14% | EC50 (Ca^2+ with 1 μM NPS R-568): 3.68 mM | Max ± S.E.M. (Ca^2+ with 1 μM NPS R-568, normalized to maximum response with Ca^2+ alone for the construct): 99 ± 18% | EC50 (Ca^2+ with 5 μM NPS 2143): 5.29 mM | pEC50 ± S.E.M. (Ca^2+ with 5 μM NPS 2143): 2.28 ± 0.03 | Max ± S.E.M. (Ca^2+ with 5 μM NPS 2143, normalized to maximum response with Ca^2+ alone for the construct): 97 ± 7.6%
SMILES: [Ca+2] [Ca^2+]
